{"source": "patent US11707464B2", "about": "“Methods of treating heavy menstrual bleeding” (AbbVie Inc., priority 2013, dated 2023)", "type_in_all_cases": "in vivo, human", "key": {"[1]": {"tested_on": "premenopausal women with uterine fibroids and heavy menstrual bleeding", "test": "Phase 2a uterine fibroid trial: menstrual blood loss by alkaline hematin (AH) method", "settings": "for percent of subjects who achieved the composite bleeding endpoint (MBL <80 mL at Final Month and ≥50% reduction in MBL from baseline): last 28 days of treatment, AH method, placebo 30%; for Average Total Blood Loss Measured by AH Method During Treatment: 3 months of treatment; for Average Blood Loss Per Cycle Measured by AH Method in Screening: screening (baseline before treatment)", "description": "Methods for analyzing menstrual blood loss are known in the art and include, for example, the alkaline hematin method. The alkaline hematin method is based on the quantitation of menstrual blood collected on sanitary products (Hallberg L., Nilsoon L., Determination of Menstrual Blood Loss. Scand. J. Clin. Lab. Invest., 1964; 16:244-248). The method uses a strong alkaline solution to chemically convert the heme from bloodstained sanitary products to alkaline hematin, which is measured colorimetrically. When compared to a subject's serum hemoglobin (Hgb), the volume of blood loss in the menstrual products can be determined.\nThis example is a Phase 2a, multicenter, double-blind, placebo-controlled, randomized trial (N=280) with a 3-month treatment duration evaluating the safety and efficacy of Elagolix administered with or without Activella® in premenopausal women with uterine fibroids.\nIt evaluates the safety and efficacy of […] of Elagolix (100 mg BID, 200 mg BID, 200 mg BID plus low dose Activella® (a combination of 0.5 mg estradiol and 0.1 mg northindrone acetate), 300 mg BID, 300 mg BID plus 1.0 mg of Estrace and 200 mg cyclical Prometrium (collectively referred to as “EP”), 400 mg QD and 600 QD) versus placebo (PBO) to reduce uterine bleeding associated with uterine fibroids and to reduce fibroid volume and uterine volume in premenopausal women 20 to 49 years of age with heavy menstrual bleeding (HMB; >80 mL blood loss per menstrual cycle). The study involved the following six (6) cohorts:\nThere are a number of efficacy endpoints, but a composite endpoint consisting of two bleeding assessments was used to assess one measure of efficacy. It included the percent of subjects who achieved a menstrual blood loss (MBL) volume of <80 mL at the Final Month (last 28 days of treatment), and also achieved a ≥50% reduction in MBL volume from baseline to the Final Month (last 28 days of treatment) as measured by the Alkaline Hematin (AH) method. Eighty-five percent (85%), 97%, and 30% of subjects achieved the composite bleeding assessment endpoint in the 200 mg BID, 300 mg BID, and placebo groups, respectively (P<0.05 for 200 mg BID versus placebo in cohort 1, and 300 mg BID versus placebo in cohort 2). Eighty-two percent (82%) of subjects in the 200 mg BID+low-dose Activella® (low dose Activella® is a combination of (a combination of 0.5 mg estradiol and 0.1 mg norethindrone acetate) group achieved this composite endpoint. With respect to fibroid and uterine volumes, 63%, 55%, and 29% of subjects achieved a ≥25% reduction in fibroid volume and 50%, 68%, and 9% achieved a ≥25% reduction in uterine volume in the 200 mg BID, 300 mg BID, and placebo groups, respectively. In the 200 mg BID+low dose group, 53% and 42% of subjects achieved a ≥25% reduction in fibroid and uterine volume, respectively. Quality of life (QoL) measures were also determined using the “Responsiveness of the uterine fibroid symptom and health-related quality of life questionnaire” (UFS-QOL) (Harding, Gale, Coyne Karin S., Thompson Christine L., Spies James B, United BioSource Corporation, 7101 Wisconsin Avenue, Suite 600, Bethesda, Md., 20814, USA, Health and Quality Life Outcomes, 2008, 6, page 99)."}, "women with endometriosis": {"tested_on": "women with endometriosis", "test": "Phase 2 endometriosis studies: bone mineral density (BMD) over 24 weeks", "description": "Changes in BMD at the lumbar spine and the femur were evaluated over 24 weeks in three Phase 2 endometriosis studies. […] While a larger effect on BMD is anticipated with a 200 or 300 mg BID regimen compared to that observed with 250 mg QD dosed for 6 months in previous studies, the magnitude of this effect is unknown."}, "women": {"tested_on": "women", "test": "Suppression of pituitary and ovarian hormones in women", "description": "The term “Elagolix” refers to 4-((R)-2-[5-(2-fluoro-3-methoxy-phenyl)-3-(2-fluoro-6-trifluoromethyl-benzyl)-4-methyl-2,6-dioxo-3,6-dihydro-2H-pyrimidin-1-yl]-1-phenyl-ethylamino)-butyric acid or a pharmaceutically acceptable salt thereof. Elagolix is an orally active, non-peptide GnRH antagonist and is unlike other GnRH agonists and injectable (peptide) GnRH antagonists. […] Methods of making Elagolix and a pharmaceutically acceptable salt thereof are described in WO 2005/007165, the contents of which are herein incorporated by reference."}}, "data": [{"smiles": "COc1cccc(-c2c(C)n(Cc3c(F)cccc3C(F)(F)F)c(=O)n(C[C@H](NCCCC(=O)O)c3ccccc3)c2=O)c1F", "note": "[Elagolix, 4-((R)-2-[5-(2-fluoro-3-methoxy-phenyl)-3-(2-fluoro-6-trifluoromethyl-benzyl)-4-methyl-2,6-dioxo-3,6-dihydro-2H-pyrimidin-1-yl]-1-phenyl-ethylamino)-butyric acid]", "values": [{"measurement": "percent of subjects who achieved the composite bleeding endpoint (MBL <80 mL at Final Month and ≥50% reduction in MBL from baseline)", "setting": "[1]; 200 mg BID", "value": 85, "unit": "%"}, {"measurement": "inhibition of bleeding", "setting": "[1]; 300 mg BID without add-back therapy, most of women achieved amenorrhea", "value": "maximum inhibition of bleeding"}, {"measurement": "percent of subjects who achieved the composite bleeding endpoint (MBL <80 mL at Final Month and ≥50% reduction in MBL from baseline)", "setting": "[1]; 300 mg BID", "value": 97, "unit": "%"}, {"measurement": "inhibition of bleeding", "setting": "[1]; 400 mg QD, compared with 300 mg BID", "value": "slightly less effective"}, {"measurement": "inhibition of bleeding", "setting": "[1]; 600 mg QD, compared with 300 mg BID", "value": "slightly less effective"}, {"measurement": "Average Total MBL from Days 36-65 Post-Baseline", "setting": "[1]; Elagolix 100 BID, N = 26", "value": 100.9, "unit": "mL"}, {"measurement": "Average Total MBL in Days 66-95 Post-Baseline", "setting": "[1]; Elagolix 100 BID, N = 26", "value": 65.4, "unit": "mL"}, {"measurement": "Average total MBL from days 6-35 post-baseline", "setting": "[1]; Elagolix 100 BID, N = 26", "value": 33.2, "unit": "mL"}, {"measurement": "Average Total Blood Loss Measured by AH Method During Treatment", "setting": "[1]; Elagolix 100 BID, N = 26", "value": 198.4, "unit": "mL"}, {"measurement": "Average Total MBL from Days 36-65 Post-Baseline", "setting": "[1]; Elagolix 200 BID, N = 28", "value": 5.5, "unit": "mL"}, {"measurement": "Average Total MBL in Days 66-95 Post-Baseline", "setting": "[1]; Elagolix 200 BID, N = 28", "value": 41.5, "unit": "mL"}, {"measurement": "Average total MBL from days 6-35 post-baseline", "setting": "[1]; Elagolix 200 BID, N = 28", "value": 0, "unit": "mL"}, {"measurement": "Average Total Blood Loss Measured by AH Method During Treatment", "setting": "[1]; Elagolix 200 BID, N = 28", "value": 47.0, "unit": "mL"}, {"measurement": "Average Total MBL from Days 36-65 Post-Baseline", "setting": "[1]; Elagolix 300 BID, N = 26", "value": 0, "unit": "mL"}, {"measurement": "Average Total MBL in Days 66-95 Post-Baseline", "setting": "[1]; Elagolix 300 BID, N = 26", "value": 4.3, "unit": "mL"}, {"measurement": "Average total MBL from days 6-35 post-baseline", "setting": "[1]; Elagolix 300 BID, N = 26", "value": 0, "unit": "mL"}, {"measurement": "Average Total Blood Loss Measured by AH Method During Treatment", "setting": "[1]; Elagolix 300 BID, N = 26", "value": 4.3, "unit": "mL"}, {"measurement": "Average Total MBL from Days 36-65 Post-Baseline", "setting": "[1]; Elagolix 400 QD, N = 26", "value": 12.4, "unit": "mL"}, {"measurement": "Average Total MBL in Days 66-95 Post-Baseline", "setting": "[1]; Elagolix 400 QD, N = 26", "value": 21.6, "unit": "mL"}, {"measurement": "Average total MBL from days 6-35 post-baseline", "setting": "[1]; Elagolix 400 QD, N = 26", "value": 14.9, "unit": "mL"}, {"measurement": "Average Total Blood Loss Measured by AH Method During Treatment", "setting": "[1]; Elagolix 400 QD, N = 26", "value": 38.4, "unit": "mL"}, {"measurement": "Average Total MBL from Days 36-65 Post-Baseline", "setting": "[1]; Elagolix 600 QD, N = 24", "value": 35.0, "unit": "mL"}, {"measurement": "Average Total MBL in Days 66-95 Post-Baseline", "setting": "[1]; Elagolix 600 QD, N = 24", "value": 14.9, "unit": "mL"}, {"measurement": "Average total MBL from days 6-35 post-baseline", "setting": "[1]; Elagolix 600 QD, N = 24", "value": 27.6, "unit": "mL"}, {"measurement": "Average Total Blood Loss Measured by AH Method During Treatment", "setting": "[1]; Elagolix 600 QD, N = 24", "value": 69.6, "unit": "mL"}, {"measurement": "Average Blood Loss Per Cycle Measured by AH Method in Screening", "setting": "[1]; group Elagolix 100 BID, N = 26", "value": 276.4, "unit": "mL"}, {"measurement": "Average Blood Loss Per Cycle Measured by AH Method in Screening", "setting": "[1]; group Elagolix 200 BID, N = 28", "value": 287.4, "unit": "mL"}, {"measurement": "Average Blood Loss Per Cycle Measured by AH Method in Screening", "setting": "[1]; group Elagolix 300 BID, N = 26", "value": 224.8, "unit": "mL"}, {"measurement": "Average Blood Loss Per Cycle Measured by AH Method in Screening", "setting": "[1]; group Elagolix 400 QD, N = 26", "value": 220.3, "unit": "mL"}, {"measurement": "Average Blood Loss Per Cycle Measured by AH Method in Screening", "setting": "[1]; group Elagolix 600 QD, N = 24", "value": 228.7, "unit": "mL"}, {"measurement": "subjects with decreases in BMD of the spine that exceeded 5%", "setting": "women with endometriosis; 75 mg BID, 5/62 subjects, 24 weeks, largest study", "value": 8.1, "unit": "%"}, {"measurement": "largest decrease in BMD of the spine", "setting": "women with endometriosis; 150 mg QD and 75 mg BID, 24 weeks, largest study", "value": "no subject exceeded −8%"}, {"measurement": "subjects with decreases in BMD of the spine that exceeded 5%", "setting": "women with endometriosis; 150 mg QD, 2/55 subjects, 24 weeks, largest study", "value": 3.6, "unit": "%"}, {"measurement": "bone loss", "setting": "women with endometriosis; doses that provide partial estrogen suppression (target dose 150 mg QD)", "value": "modest degree of bone loss"}, {"measurement": "suppression of pituitary and ovarian hormones", "setting": "women", "value": "dose dependent suppression"}]}]}
